Data from ChEMBL document CHEMBL1127193, “High-purity porcine pancreatic lipase: novel effects in catalyzing hydrolysis of esters derived from bicyclo[3.2.0]hept-2-EN-6-OLS” (Bioorg Med Chem Lett, 1993).

How the values were obtained:
[1] = molecular target: T1, Pancreatic triacylglycerol lipase (Homo sapiens, UniProt P16233); assay: Tested for hydrolysis with 0.2 ug/mL of PPL (porcine pancreatic lipase) at a compound dose of 0.2 g; design: species or system Sus scrofa; settings: target entry is the homologue from another species
T1 sequence (P16233 whole entry): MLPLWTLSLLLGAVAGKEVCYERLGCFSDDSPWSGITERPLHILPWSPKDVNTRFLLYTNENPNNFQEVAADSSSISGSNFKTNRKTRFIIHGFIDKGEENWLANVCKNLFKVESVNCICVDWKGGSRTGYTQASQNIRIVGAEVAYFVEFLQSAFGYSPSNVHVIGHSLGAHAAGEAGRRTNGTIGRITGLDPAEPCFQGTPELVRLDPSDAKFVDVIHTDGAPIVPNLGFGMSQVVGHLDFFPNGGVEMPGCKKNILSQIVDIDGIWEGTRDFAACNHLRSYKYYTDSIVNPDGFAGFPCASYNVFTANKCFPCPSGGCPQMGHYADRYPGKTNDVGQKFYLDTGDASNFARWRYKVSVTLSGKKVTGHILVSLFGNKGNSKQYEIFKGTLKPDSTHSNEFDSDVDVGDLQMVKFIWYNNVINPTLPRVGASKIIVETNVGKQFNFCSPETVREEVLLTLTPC

[2] = molecular target: T1, Pancreatic triacylglycerol lipase; assay: Tested for hydrolysis with 0.2 ug/mL of PPL (porcine pancreatic lipase), 1.5 ug/mL of colipase and 4 mM sodium taurodeoxycholatet (NaTDC) at a compound concentration of 0.2 g; design: species or system Sus scrofa; settings: target entry is the homologue from another species
[3] = molecular target: T2, Pancreatic triacylglycerol lipase (Homo sapiens) (UniProt P16233); settings: Sus scrofa
T2 sequence (whole entry): T1 sequence (P16233 whole entry)

[4] = molecular target: T2, Pancreatic triacylglycerol lipase (Homo sapiens); settings: Sus scrofa; remark: listed apart in the source
[5] = molecular target: T2, Pancreatic triacylglycerol lipase (Homo sapiens); assay: Tested for hydrolysis with 200 ug/mL of PPL (porcine pancreatic lipase) and sodium taurodeoxycholatet (NaTDC) at the compound dose of 0.2 g; settings: Sus scrofa; target entry is the homologue from another species
[6] = molecular target: T2, Pancreatic triacylglycerol lipase (Homo sapiens); assay: Tested for hydrolysis with 20 ug/mL of PPL (porcine pancreatic lipase) and sodium taurodeoxycholatet (NaTDC) at the compound dose of 0.2 g; settings: Sus scrofa; target entry is the homologue from another species
[7] = molecular target: T2, Pancreatic triacylglycerol lipase (Homo sapiens); assay: Tested for hydrolysis with 80 ug/mL of PPL (porcine pancreatic lipase) at the compound dose of 0.1 g; settings: Sus scrofa; target entry is the homologue from another species
[8] = molecular target: T2, Pancreatic triacylglycerol lipase (Homo sapiens); assay: Tested for hydrolysis with 1.0 ug/mL of PPL (porcine pancreatic lipase) at the compound dose of 0.2 g; settings: Sus scrofa; target entry is the homologue from another species
[9] = molecular target: T2, Pancreatic triacylglycerol lipase (Homo sapiens); assay: Tested for hydrolysis with 1.0 ug/mL of PPL (porcine pancreatic lipase), 2.2 ug/mL of colipase and 4 mM of sodium taurodeoxycholatet (NaTDC) at the compound dose of 0.2 g; settings: Sus scrofa; target entry is the homologue from another species
[10] = molecular target: T2, Pancreatic triacylglycerol lipase (Homo sapiens); assay: Tested for hydrolysis with 0.2 ug/mL of PPL (porcine pancreatic lipase) at the compound dose of 0.2 g; settings: Sus scrofa; target entry is the homologue from another species
[11] = molecular target: T2, Pancreatic triacylglycerol lipase (Homo sapiens); assay: Tested for hydrolysis with 0.5 ug/mL of PPL (porcine pancreatic lipase), 1.5 ug/mL of colipase and 4 mM of sodium taurodeoxycholatet (NaTDC) at the compound dose of 0.2 g; settings: Sus scrofa; target entry is the homologue from another species

## CCCC(=O)OCC(COC(=O)CCC)OC(=O)CCC [TRIBUTYRIN]
[1]
  kcat: 1100 s⁻¹
[2]
  kcat: < 1 s⁻¹
[3]
  k cat: 4900 s⁻¹
[4]
  k cat: 5100 s⁻¹

## CCCC(=O)O[C@H]1C[C@@H]2C=CC[C@H]12
[5]
  k cat: < 5 s⁻¹
[6]
  k cat: < 4 s⁻¹

## CC(=O)O[C@@H]1C[C@@H]2C=CC[C@@H]21
[7]
  k cat: < 9 s⁻¹

## CCCC(=O)O[C@@H]1C[C@@H]2C=CC[C@@H]21.CCCC(=O)O[C@@H]1C[C@H]2C=CC[C@@H]21
[8]
  k cat: 420 s⁻¹
[9]
  k cat: 400 s⁻¹

## CCCC(=O)O[C@@H]1C[C@@H]2C=CC[C@@H]21
[10]
  k cat: 3870 s⁻¹
[11]
  k cat: 3560 s⁻¹
